Data taken from ChEMBL document CHEMBL1201862, “PubChem BioAssay data set” (2004).
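Each compound was tested at five concentrations against cells in 96-well plates for 48 hours. The concentration for 50% growth inhibition is given as GI50.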 Calls of active or inactive are those of the source. No stated cut-off is given here; in the data, active = GI50 up to about 1.1 µM and inactive = higher.

Legend:
Assay in all cases: DTP human tumour cell line panel, 48 h
[1] = test system: A498
[2] = test system: A549
[3] = test system: ACHN
[4] = test system: DU-145
[5] = test system: EKVX
[6] = test system: HL-60
[7] = test system: HOP-92
[8] = test system: Hs-578T
[9] = test system: KM12
[10] = test system: MCF7
[11] = test system: NCI-H226
[12] = test system: OVCAR-4
[13] = test system: OVCAR-5
[14] = test system: PC-3
[15] = test system: SF-539
[16] = test system: SK-OV-3
[17] = test system: TK-10
[18] = test system: UACC-257
[19] = test system: UACC-62
[20] = test system: HCC 2998

| SMILES | GI50 [1] | GI50 [2] | GI50 [3] | GI50 [4] | GI50 [5] | GI50 [6] | GI50 [7] | GI50 [8] | GI50 [9] | GI50 [10] | GI50 [11] | GI50 [12] | GI50 [13] | GI50 [14] | GI50 [15] | GI50 [16] | GI50 [17] | GI50 [18] | GI50 [19] | GI50 [20] |
| --- | --- | --- | --- | --- | --- | --- | --- | --- | --- | --- | --- | --- | --- | --- | --- | --- | --- | --- | --- | --- |
| NS(=O)(=O)c1cc(Br)c(/N=N\c2ccc(O)c3ncccc23)c(Br)c1 | 18.6 µM (inactive) | 18.5 µM (inactive) | 4.34 µM (inactive) | 47 µM (inactive) | 32.3 µM (inactive) | 6.04 µM (inactive) | 41.8 µM (inactive) | 21.8 µM (inactive) | 37.8 µM (inactive) | 11.5 µM (inactive) | 45 µM (inactive) | 43.6 µM (inactive) | 71.6 µM (inactive) | 29.8 µM (inactive) | 25.9 µM (inactive) | 47.8 µM (inactive) | 22.3 µM (inactive) | 19.6 µM (inactive) | 21.8 µM (inactive) |  |
| O=C(N/N=C/c1ccc(O)cc1)NNCCO | > 100 µM (inactive) | > 100 µM (inactive) |  | > 100 µM (inactive) |  | > 100 µM (inactive) |  | > 100 µM (inactive) | > 100 µM (inactive) | > 100 µM (inactive) | > 100 µM (inactive) |  | > 100 µM (inactive) | > 100 µM (inactive) | > 100 µM (inactive) | > 100 µM (inactive) | > 100 µM (inactive) | > 100 µM (inactive) | > 100 µM (inactive) | > 100 µM (inactive) |
| c1ccc2c(c1)/C(=N\NC1=NCCN1)c1nc3ccccc3nc1-2 |  | 3.86 µM (inactive) | 3.21 µM (inactive) | 10.6 µM (inactive) | 12.9 µM (inactive) | 3.83 µM (inactive) | 2.58 µM (inactive) | 16.6 µM (inactive) | 3.88 µM (inactive) | 3.32 µM (inactive) | 3.63 µM (inactive) | 17.6 µM (inactive) | 6.64 µM (inactive) | 2.56 µM (inactive) | 5.31 µM (inactive) | 1.54 µM (inactive) | 14.1 µM (inactive) | 5.31 µM (inactive) | 2.49 µM (inactive) | 4.91 µM (inactive) |
| CCOP(=O)(OCC)/C(=C\n1ccc(=O)[nH]c1=S)C(=O)OC | > 100 µM (inactive) | > 100 µM (inactive) | > 100 µM (inactive) | > 100 µM (inactive) | > 100 µM (inactive) | > 100 µM (inactive) |  | 66.2 µM (inactive) | > 100 µM (inactive) | > 100 µM (inactive) | > 100 µM (inactive) | > 100 µM (inactive) | > 100 µM (inactive) | > 100 µM (inactive) | > 100 µM (inactive) | > 100 µM (inactive) |  | > 100 µM (inactive) | > 100 µM (inactive) | > 100 µM (inactive) |
| CC1(c2nc3cc(Cl)c(Cl)cc3[nH]2)CCC(CO)C(C)(C)O1 (stereo not drawn) |  | 33.6 µM (inactive) | 30.3 µM (inactive) | 38 µM (inactive) | 23 µM (inactive) | 15 µM (inactive) | 44 µM (inactive) | 14.8 µM (inactive) | 15.1 µM (inactive) | 35.9 µM (inactive) | 12.4 µM (inactive) | 25.1 µM (inactive) | 82.2 µM (inactive) | 29 µM (inactive) | 25.4 µM (inactive) | 94.2 µM (inactive) | 27.6 µM (inactive) | 29.6 µM (inactive) | 17.6 µM (inactive) | 32.2 µM (inactive) |
| O=C(/C=C(\Nc1ccccc1O)c1ccccc1)C(=O)NC12CC3CC(CC(C3)C1)C2 | > 10 µM (inactive) |  | > 10 µM (inactive) | > 10 µM (inactive) | > 10 µM (inactive) | 3.52 µM (inactive) |  | > 10 µM (inactive) | 6.95 µM (inactive) | > 10 µM (inactive) | > 10 µM (inactive) | > 10 µM (inactive) | 8.45 µM (inactive) | 5.65 µM (inactive) | 8.93 µM (inactive) | > 10 µM (inactive) | > 10 µM (inactive) | > 10 µM (inactive) |  | > 10 µM (inactive) |
| O=C(/C=C/c1csc(-c2ccccc2)n1)NCc1ccc(C(=O)NCc2ccccc2)cc1 | 64.9 µM (inactive) | > 100 µM (inactive) | 67.1 µM (inactive) | > 100 µM (inactive) | > 100 µM (inactive) |  | 24.4 µM (inactive) | 13.3 µM (inactive) | > 100 µM (inactive) | > 100 µM (inactive) | > 100 µM (inactive) | > 100 µM (inactive) | > 100 µM (inactive) | > 100 µM (inactive) | 32.3 µM (inactive) | > 100 µM (inactive) | 31.9 µM (inactive) | > 100 µM (inactive) | > 100 µM (inactive) | > 100 µM (inactive) |
| CC1(C)CC(=O)C(=CNC(=O)c2ccncc2)C(=O)C1 |  | > 100 µM (inactive) | > 100 µM (inactive) | > 100 µM (inactive) | > 100 µM (inactive) | 71.3 µM (inactive) | > 100 µM (inactive) | > 100 µM (inactive) | > 100 µM (inactive) | > 100 µM (inactive) | > 100 µM (inactive) | > 100 µM (inactive) | > 100 µM (inactive) | > 100 µM (inactive) | > 100 µM (inactive) | > 100 µM (inactive) | > 100 µM (inactive) | > 100 µM (inactive) | > 100 µM (inactive) | > 100 µM (inactive) |
| N#Cc1cnc(-n2[nH]c3c(c2=O)CCCC3)[nH]c1=O | 59 µM (inactive) | 38.5 µM (inactive) | 47.2 µM (inactive) | 64.1 µM (inactive) | 37.6 µM (inactive) | 34.8 µM (inactive) | 35.2 µM (inactive) | > 100 µM (inactive) | 21.8 µM (inactive) | 39.8 µM (inactive) | 47.8 µM (inactive) | 83.9 µM (inactive) | 74.6 µM (inactive) | 59.4 µM (inactive) | 43.9 µM (inactive) | 75.3 µM (inactive) | 51.5 µM (inactive) | 55 µM (inactive) | 38.6 µM (inactive) |  |
| COc1cccc(/C=C2/Sc3scc(-c4ccccc4)[n+]3C2=O)c1O |  | 38.8 µM (inactive) | 18.4 µM (inactive) | 22.1 µM (inactive) | 19.2 µM (inactive) | 11.9 µM (inactive) | 15.3 µM (inactive) | 42.7 µM (inactive) | 18.6 µM (inactive) | 15.5 µM (inactive) | 19.4 µM (inactive) | 29.6 µM (inactive) | 36.7 µM (inactive) | 32.1 µM (inactive) | 16.1 µM (inactive) | 22.3 µM (inactive) | 31 µM (inactive) | 19.7 µM (inactive) | 15.5 µM (inactive) | 16.6 µM (inactive) |
| CC(C)(C)c1cc(CC2C(=O)c3ccccc3C2=O)cc(C(C)(C)C)c1O | 13.3 µM (inactive) | 8.59 µM (inactive) | 9.51 µM (inactive) | 2.45 µM (inactive) | 5.37 µM (inactive) | 2.54 µM (inactive) | 0.272 µM (active) | 3.94 µM (inactive) | 3.51 µM (inactive) | 3.66 µM (inactive) |  | 4.08 µM (inactive) | 11.7 µM (inactive) | 2.7 µM (inactive) | 3.65 µM (inactive) | 2.44 µM (inactive) | 5.57 µM (inactive) | 3.21 µM (inactive) | 3.58 µM (inactive) |  |
| O=C(O)/C=C/C(=O)N1Cc2cc3ccccc3nc2C1 |  | > 100 µM (inactive) | > 100 µM (inactive) | > 100 µM (inactive) | > 100 µM (inactive) | > 100 µM (inactive) | > 100 µM (inactive) | > 100 µM (inactive) | > 100 µM (inactive) | > 100 µM (inactive) | > 100 µM (inactive) |  | > 100 µM (inactive) | > 100 µM (inactive) | > 100 µM (inactive) | > 100 µM (inactive) | > 100 µM (inactive) | > 100 µM (inactive) | > 100 µM (inactive) | > 100 µM (inactive) |
| CN1CCC/C1=N\C#N | > 100 µM (inactive) | > 100 µM (inactive) | > 100 µM (inactive) | > 100 µM (inactive) | > 100 µM (inactive) | > 100 µM (inactive) |  | > 100 µM (inactive) | > 100 µM (inactive) | > 100 µM (inactive) | > 100 µM (inactive) | > 100 µM (inactive) | > 100 µM (inactive) | > 100 µM (inactive) | > 100 µM (inactive) | > 100 µM (inactive) | > 100 µM (inactive) |  | > 100 µM (inactive) | > 100 µM (inactive) |
| COC1/C=C/O[C@@]2(C)Oc3c(C)c(O)c4c(O)c(cc(O)c4c3C2=O)NC(=O)/C(C)=C\C=C\[C@H](C)C(O)[C@@H](C)[C@@H](O)[C@@H](C)[C@H](OC(C)=O)[C@@H]1C (stereo partly drawn) | 38.2 µM (inactive) |  | 19.4 µM (inactive) | 24 µM (inactive) |  |  | 10.2 µM (inactive) | 33 µM (inactive) | 27.2 µM (inactive) | 10.2 µM (inactive) |  | 13.1 µM (inactive) | 38.5 µM (inactive) | 16 µM (inactive) | 25.9 µM (inactive) | 110 µM (inactive) | 20.1 µM (inactive) | 13 µM (inactive) | 18.1 µM (inactive) | 18.8 µM (inactive) |
| O=C(O)CNCP(=O)(O)O [GLYPHOSATE] | > 100 µM (inactive) | > 100 µM (inactive) | > 100 µM (inactive) | > 100 µM (inactive) | > 100 µM (inactive) | > 100 µM (inactive) | > 100 µM (inactive) | > 100 µM (inactive) | > 100 µM (inactive) | > 100 µM (inactive) | > 100 µM (inactive) | > 100 µM (inactive) | > 100 µM (inactive) | > 100 µM (inactive) | > 100 µM (inactive) | > 100 µM (inactive) | > 100 µM (inactive) | > 100 µM (inactive) | > 100 µM (inactive) |  |
